The NIST ThermoML archive (doi:10.1016/j.jct.2015.09.020)

Experiment: mn = molality of the nth substance listed, in mol/kg
Conditions: 101.3 kPa, Liquid

N[C@@H](CCC(=O)[O-])C(=O)O.[Na+] [sodium (S)-2-amino-4-carboxybutanoate] + O
speed of sound [m/s]
Conditions	278.15 K	288.15 K	298.15 K
Frequency=2 MHz, Linear variable-path acoustic interferometer, m1 = 0.0467	1433.6	–	–
Frequency=2 MHz, Linear variable-path acoustic interferometer, m1 = 0.0724	1437.7	–	–
Frequency=2 MHz, Linear variable-path acoustic interferometer, m1 = 0.091	1441	–	–
Frequency=2 MHz, Linear variable-path acoustic interferometer, m1 = 0.1095	1442.8	–	–
Frequency=2 MHz, Linear variable-path acoustic interferometer, m1 = 0.1355	1446.8	–	–
Frequency=2 MHz, Linear variable-path acoustic interferometer, m1 = 0.163	1451.4	–	–
Frequency=2 MHz, Linear variable-path acoustic interferometer, m1 = 0.1906	1455.3	–	–
Frequency=2 MHz, Linear variable-path acoustic interferometer, m1 = 0.2075	1458.8	–	–
Frequency=2 MHz, Linear variable-path acoustic interferometer, m1 = 0.2251	1461.7	–	–
Frequency=2 MHz, Linear variable-path acoustic interferometer, m1 = 0.2436	1464	–	–
Frequency=2 MHz, Linear variable-path acoustic interferometer, m1 = 0.2705	1468.1	–	–
Frequency=2 MHz, Linear variable-path acoustic interferometer, m1 = 0.2895	1471.7	–	–
Frequency=2 MHz, Linear variable-path acoustic interferometer, m1 = 0.302	1473.6	–	–
Frequency=3 MHz, Sing-around technique in a fixed-path interferometer, m1 = 0.0469	–	1472.9	1502.5
Frequency=3 MHz, Sing-around technique in a fixed-path interferometer, m1 = 0.072	–	1476.6	1505.8
Frequency=3 MHz, Sing-around technique in a fixed-path interferometer, m1 = 0.0904	–	1478.9	1508.2
Frequency=3 MHz, Sing-around technique in a fixed-path interferometer, m1 = 0.1082	–	1481.3	1510.5
Frequency=3 MHz, Sing-around technique in a fixed-path interferometer, m1 = 0.1368	–	1485.6	1514.4
Frequency=3 MHz, Sing-around technique in a fixed-path interferometer, m1 = 0.1628	–	1489.3	1517.9
Frequency=3 MHz, Sing-around technique in a fixed-path interferometer, m1 = 0.19	–	1492.9	1521.3
Frequency=3 MHz, Sing-around technique in a fixed-path interferometer, m1 = 0.2089	–	1495.3	1523.6
Frequency=3 MHz, Sing-around technique in a fixed-path interferometer, m1 = 0.2289	–	1497.5	1525.8
Frequency=3 MHz, Sing-around technique in a fixed-path interferometer, m1 = 0.2441	–	1499.7	1527.8
Frequency=3 MHz, Sing-around technique in a fixed-path interferometer, m1 = 0.264	–	1503.2	1531.1
Frequency=3 MHz, Sing-around technique in a fixed-path interferometer, m1 = 0.2916	–	1506.7	1533.9
Frequency=3 MHz, Sing-around technique in a fixed-path interferometer, m1 = 0.316	–	1509	1537

mass density [kg/m3]
Conditions	278.15 K	288.15 K	298.15 K
Pycnometric method, m1 = 0.0467	1004.22	–	–
Pycnometric method, m1 = 0.0724	1006.57	–	–
Pycnometric method, m1 = 0.091	1008.26	–	–
Pycnometric method, m1 = 0.1095	1009.79	–	–
Pycnometric method, m1 = 0.1355	1012.41	–	–
Pycnometric method, m1 = 0.163	1014.89	–	–
Pycnometric method, m1 = 0.1906	1017.32	–	–
Pycnometric method, m1 = 0.2075	1018.82	–	–
Pycnometric method, m1 = 0.2251	1020.29	–	–
Pycnometric method, m1 = 0.2436	1022.15	–	–
Pycnometric method, m1 = 0.2705	1024.19	–	–
Pycnometric method, m1 = 0.2895	1026.12	–	–
Pycnometric method, m1 = 0.302	1027.42	–	–
Vibrating tube method, m1 = 0.0469	–	1003.34	1001.22
Vibrating tube method, m1 = 0.072	–	1005.66	1003.48
Vibrating tube method, m1 = 0.0904	–	1007.29	1005.08
Vibrating tube method, m1 = 0.1082	–	1008.87	1006.62
Vibrating tube method, m1 = 0.1368	–	1011.34	1009.04
Vibrating tube method, m1 = 0.1628	–	1013.63	1011.28
Vibrating tube method, m1 = 0.19	–	1016.04	1013.63
Vibrating tube method, m1 = 0.2089	–	1017.65	1015.21
Vibrating tube method, m1 = 0.2289	–	1019.31	1016.84
Vibrating tube method, m1 = 0.2441	–	1020.63	1018.13
Vibrating tube method, m1 = 0.264	–	1022.32	1019.79
Vibrating tube method, m1 = 0.2916	–	1024.67	1022.11
Vibrating tube method, m1 = 0.316	–	1026.69	1024.08
